{
  "source": "ChEMBL document CHEMBL5584338",
  "about": "“Design, Synthesis, and Biological Evaluation of 5-Amino-4-fluoro-1H-benzo[d]imidazole-6-carboxamide Derivatives as Novel and Potential MEK/RAF Complex Inhibitors Based on the \"Clamp\" Strategy” (J Med Chem, 2024)",
  "key": {"MIA PaCa-2 [1]": {"system": "MIA PaCa-2", "assay": "Induction of apoptosis in human MIA PaCa-2 cells assessed as early apoptotic cells at 1 uM incubated for 24 hrs by Annexin V-FITC/PI staining based flow cytometry (reference value: 5.02 %)", "format": "functional"}, "[2]": {"target": "T1, Dual specificity mitogen-activated protein kinase kinase 1 (Homo sapiens, UniProt Q02750)", "T1 sequence (Q02750 whole entry)": "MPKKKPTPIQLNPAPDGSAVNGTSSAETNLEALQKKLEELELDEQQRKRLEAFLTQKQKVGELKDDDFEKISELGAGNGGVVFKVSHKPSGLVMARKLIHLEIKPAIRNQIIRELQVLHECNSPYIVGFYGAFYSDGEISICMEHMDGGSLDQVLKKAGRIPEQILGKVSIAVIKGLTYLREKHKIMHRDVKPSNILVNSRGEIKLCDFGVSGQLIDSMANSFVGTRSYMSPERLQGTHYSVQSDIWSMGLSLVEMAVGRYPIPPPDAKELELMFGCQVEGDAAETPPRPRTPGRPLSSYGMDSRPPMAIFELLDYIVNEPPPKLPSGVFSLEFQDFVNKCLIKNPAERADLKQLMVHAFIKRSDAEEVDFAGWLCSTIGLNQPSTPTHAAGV", "assay": "Inhibition of MEK1 (unknown origin) assessed as remaining activity at 0.1 uM relative to control"}, "[3]": {"target": "T2, Serine/threonine-protein kinase A-Raf (Homo sapiens) (UniProt P10398)", "T2 sequence (whole entry)": "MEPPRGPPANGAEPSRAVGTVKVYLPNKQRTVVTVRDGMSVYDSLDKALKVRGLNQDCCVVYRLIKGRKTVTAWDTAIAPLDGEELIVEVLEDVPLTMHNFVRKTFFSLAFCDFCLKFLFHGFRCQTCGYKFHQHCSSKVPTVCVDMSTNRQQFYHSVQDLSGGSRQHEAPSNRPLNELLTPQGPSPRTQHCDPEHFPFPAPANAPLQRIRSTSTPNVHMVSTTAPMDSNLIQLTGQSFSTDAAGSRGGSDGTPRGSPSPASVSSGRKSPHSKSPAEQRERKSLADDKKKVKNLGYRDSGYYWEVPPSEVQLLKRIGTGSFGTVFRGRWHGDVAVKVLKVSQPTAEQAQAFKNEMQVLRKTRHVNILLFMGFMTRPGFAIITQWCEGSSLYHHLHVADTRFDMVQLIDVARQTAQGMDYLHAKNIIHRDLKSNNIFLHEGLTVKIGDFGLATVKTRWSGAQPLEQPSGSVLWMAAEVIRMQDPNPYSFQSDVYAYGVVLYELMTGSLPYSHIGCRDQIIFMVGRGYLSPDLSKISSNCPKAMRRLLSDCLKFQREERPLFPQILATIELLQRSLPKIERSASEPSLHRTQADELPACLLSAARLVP", "assay": "Binding affinity to ARAF (unknown origin) at 1 uM by kinase profiling analysis"}, "HCT-116": {"system": "HCT-116", "assay": "Antitumor activity against human HCT-116 cells harboring KRAS G13D mutant xenografted in NU/NU mouse at 30 mg/kg, iv administered 5 times a week for 16 days relative to control", "format": "functional", "details": "HCT-116, 384 h, time 16 day, read-out: TGI"}, "MIA PaCa-2 [4]": {"system": "MIA PaCa-2", "assay": "Induction of apoptosis in human MIA PaCa-2 cells assessed as increase in cleaved PARP-1 level upto 1 uM incubated for 24 hrs by Western blot analysis", "format": "functional, cell-based"}, "MIA PaCa-2 [5]": {"system": "MIA PaCa-2", "assay": "Inhibition of colony formation in human MIA PaCa-2 cells incubated for 10 days by crystal violet staining based analysis", "format": "functional, cell-based", "details": "dose 0.01-1 µM, time 10.0 day"}, "MIA PaCa-2 [6]": {"system": "MIA PaCa-2", "assay": "Induction of apoptosis in human MIA PaCa-2 cells assessed as early apoptotic cells at 0.25 uM incubated for 24 hrs by Annexin V-FITC/PI staining based flow cytometry (reference value: 5.02 %)", "format": "functional"}, "[7]": {"target": "Serine/threonine-protein kinase B-raf (Homo sapiens, UniProt P15056)", "sequence (P15056 whole entry)": "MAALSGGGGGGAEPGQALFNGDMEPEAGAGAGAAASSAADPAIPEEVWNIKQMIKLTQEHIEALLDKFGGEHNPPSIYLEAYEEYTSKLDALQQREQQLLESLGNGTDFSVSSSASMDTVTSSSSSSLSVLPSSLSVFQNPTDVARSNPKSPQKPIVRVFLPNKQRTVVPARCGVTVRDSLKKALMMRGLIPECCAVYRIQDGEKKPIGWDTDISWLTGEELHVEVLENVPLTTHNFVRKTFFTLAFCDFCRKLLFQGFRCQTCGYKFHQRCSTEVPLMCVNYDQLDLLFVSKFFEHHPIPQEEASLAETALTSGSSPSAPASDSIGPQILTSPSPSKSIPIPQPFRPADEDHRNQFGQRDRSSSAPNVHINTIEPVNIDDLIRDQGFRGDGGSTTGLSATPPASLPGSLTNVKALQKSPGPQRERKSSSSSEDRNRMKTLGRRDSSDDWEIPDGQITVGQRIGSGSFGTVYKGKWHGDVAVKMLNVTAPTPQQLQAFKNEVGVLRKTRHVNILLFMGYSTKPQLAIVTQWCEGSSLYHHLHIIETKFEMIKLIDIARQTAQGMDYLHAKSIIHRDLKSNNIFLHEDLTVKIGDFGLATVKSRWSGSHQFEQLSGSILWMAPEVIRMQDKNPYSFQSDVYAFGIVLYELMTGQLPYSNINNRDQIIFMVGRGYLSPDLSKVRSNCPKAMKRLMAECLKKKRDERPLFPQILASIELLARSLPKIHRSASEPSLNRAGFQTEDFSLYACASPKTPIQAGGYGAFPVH", "assay": "Inhibition of BRAF (unknown origin)"}, "[8]": {"target": "Dual specificity mitogen-activated protein kinase kinase; MEK1/2 (Homo sapiens) (UniProt P36507+Q02750)", "sequence (P36507 whole entry, looked up)": "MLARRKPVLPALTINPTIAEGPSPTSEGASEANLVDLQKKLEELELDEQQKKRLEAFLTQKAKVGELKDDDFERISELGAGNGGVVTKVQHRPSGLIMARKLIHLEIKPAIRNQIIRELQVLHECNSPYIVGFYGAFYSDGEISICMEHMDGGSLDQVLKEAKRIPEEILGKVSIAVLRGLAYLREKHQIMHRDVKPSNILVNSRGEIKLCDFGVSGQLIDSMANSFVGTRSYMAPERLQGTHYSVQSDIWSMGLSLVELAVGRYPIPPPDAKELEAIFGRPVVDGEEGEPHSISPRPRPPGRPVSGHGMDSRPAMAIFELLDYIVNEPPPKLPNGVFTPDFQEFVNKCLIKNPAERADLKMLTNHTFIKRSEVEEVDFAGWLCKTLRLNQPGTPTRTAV", "sequence (Q02750 whole entry, looked up)": "as the sequence (Q02750 whole entry) above", "assay": "Inhibition of MEK phosphorylation in human MIA PaCa-2 cells at lower concentration incubated for at least 48 hrs by Western blot analysis", "format": "cell-based"}, "[9]": {"system": "Mitogen-activated protein kinase 1/3 (ERK1/2) (Homo sapiens)", "assay": "Inhibition of ERK phosphorylation in human MIA PaCa-2 cells upto 1 uM incubated for 4 hrs by Western blot analysis"}, "MIA PaCa-2 [10]": {"system": "MIA PaCa-2", "assay": "Induction of cell cycle arrest at G0/G1 phase in human MIA PaCa-2 cells at 0.01 to 0.25 uM incubated for 24 hrs by PI/RNase staining based flow cytometry (reference value: 47.37 %)", "format": "functional", "details": "dose 0.01-0.25 µM"}, "[11]": {"target": "T1, Dual specificity mitogen-activated protein kinase kinase 1", "assay": "Inhibition of MEK1 (unknown origin) at 1 uM by kinase profiling analysis"}, "MIA PaCa-2 [12]": {"system": "MIA PaCa-2", "assay": "Induction of apoptosis in human MIA PaCa-2 cells assessed as early apoptotic cells at 0.05 uM incubated for 24 hrs by Annexin V-FITC/PI staining based flow cytometry (reference value: 5.02 %)", "format": "functional"}},
  "note": "Active and inactive are the calls of the source. No cut-off for these calls is given here.",
  "data": [
    {"smiles": "CCNS(=O)(=O)Nc1cccc(Cn2cnc3c(F)c(Nc4ccc(C5CC5)cc4F)c(C(=O)NOCCO)cc32)c1F", "values": [
      {"measurement": "Activity", "setting": "MIA PaCa-2 [1]", "result": 32.3, "unit": "%"},
      {"measurement": "Activity", "setting": "[2]", "result": 25, "unit": "%"},
      {"measurement": "Activity", "setting": "[3]", "result": "Active"},
      {"measurement": "inhibition in vivo at 30 mg/kg", "setting": "HCT-116", "result": 93, "unit": "%"},
      {"measurement": "Activity", "setting": "MIA PaCa-2 [4]", "result": "Active"},
      {"measurement": "inhibition", "setting": "MIA PaCa-2 [5]", "result": "Dose-Dependent Effect"},
      {"measurement": "Activity", "setting": "MIA PaCa-2 [6]", "result": 30.9, "unit": "%"},
      {"measurement": "IC50", "setting": "[7]", "result": 3, "unit": "nM"},
      {"measurement": "inhibition", "setting": "[8]", "result": "Active"},
      {"measurement": "inhibition", "setting": "[9]", "result": "Active"},
      {"measurement": "Activity", "setting": "MIA PaCa-2 [10]", "result": 87.94, "unit": "%"},
      {"measurement": "inhibition", "setting": "[11]", "result": "Active"},
      {"measurement": "Activity", "setting": "MIA PaCa-2 [12]", "result": 10.7, "unit": "%"}
    ]}
  ]
}
